In data set [1] the test system is LPS-mediated nitric oxide (NO) production in RAW264.7 cells. The data set can be described thus: LPS-mediated NO production in RAW264.7 murine macrophage model. It counts as cell-based. The settings on record: Mus musculus, RAW264.7, 16 h, 12.5 μM test compound, LPS 1 μg/ml, NI = no inhibition. How it is done:
(§1) THIAA derivatives synthesized in Examples 1-19 were dissolved in dimethyl sufoxide (DMSO) and stored at −20° C. LPS was purchased from Sigma Chemicals (St. Louis, Miss.).
(§2) The effect of the THIAA derivatives on LPS-mediated prostaglandin E2 (PGE2) and nitric oxide (NO) production was evaluated in a RAW264.7 murine macrophage model. The RAW 264.7 cell line was purchased from ATCC (Manassas, Va.) and maintained according to their instructions. Cells were grown and subcultured in 96-well plates at a density of 8×10^4 cells per well, and reached 80-90% confluence the next day. THIAA derivatives were added to the cells in serum-free medium at a final concentration of 0.1% DMSO. Following one hour of incubation with the THIAA derivatives, LPS (1 μg/ml) or DMEM medium alone was added to the cells and incubation was continued for 6 hours. Stimulation of RAW 264.7 cells with LPS (1 μg/ml) for 6 hours activated the production of PGE2 and NO. Supernatant media was collected for measurement of PGE2 levels. For NO, incubations were continued overnight. Supernatant media was collected for measurement of NO levels after 16 hours of stimulation. PGE2 levels were measured using assay kits from Assay Designs, (Ann Arbor, Mich.) and NO levels were measured using assay kits from Cayman Chemicals (Ann Harbor, Mich.).
(§3) Results are summarized in Table 2, with data represented as % inhibition of inflammatory mediator production.

The test system of data set [2] is LPS-mediated MCP-1 production in THP-1 cells. The experiment in a line: LPS-mediated MCP-1 production in THP-1 cells. The format is cell-based. The settings on record: Homo sapiens; 12.5 μM test compound; THP-1 cells, LPS 1 μg/ml; NI = no inhibition. The protocol: as §1
(§4) The effect of the THIAA derivatives on LPS-mediated MMP-9, IL-1β, ([…], MCP-1, RANTES, and MIP-1α was evaluated in THP-1 cells. Stimulation of THP-1 cells with LPS (1 μg/ml) activated the production of MMP-9, IL-1β, MCP-1, RANTES, and MIP-1α.
as §3

Data set [3] concerns LPS-mediated RANTES production in THP-1 cells. The data set can be described thus: LPS-mediated RANTES production in THP-1 cells. The format is cell-based. The settings on record: Homo sapiens; 12.5 μM test compound; THP-1 cells, LPS 1 μg/ml; NI = no inhibition. How it is done: as §1, §4, §3
The subject of data set [4] is LPS-mediated inflammatory mediators in RAW264.7 and THP-1 cells. The data set can be described thus: Mean inhibition across all six inflammatory mediators. It counts as cell-based. The settings on record: 12.5 μM test compound. How it is done: as §2, §4, §3
Mean inhibition across all six inflammatory mediators was calculated for each of the THIAA derivatives.

A further data set has as its target T1, PPARγ (Homo sapiens, UniProt P37231).
T1 sequence (P37231 1-505): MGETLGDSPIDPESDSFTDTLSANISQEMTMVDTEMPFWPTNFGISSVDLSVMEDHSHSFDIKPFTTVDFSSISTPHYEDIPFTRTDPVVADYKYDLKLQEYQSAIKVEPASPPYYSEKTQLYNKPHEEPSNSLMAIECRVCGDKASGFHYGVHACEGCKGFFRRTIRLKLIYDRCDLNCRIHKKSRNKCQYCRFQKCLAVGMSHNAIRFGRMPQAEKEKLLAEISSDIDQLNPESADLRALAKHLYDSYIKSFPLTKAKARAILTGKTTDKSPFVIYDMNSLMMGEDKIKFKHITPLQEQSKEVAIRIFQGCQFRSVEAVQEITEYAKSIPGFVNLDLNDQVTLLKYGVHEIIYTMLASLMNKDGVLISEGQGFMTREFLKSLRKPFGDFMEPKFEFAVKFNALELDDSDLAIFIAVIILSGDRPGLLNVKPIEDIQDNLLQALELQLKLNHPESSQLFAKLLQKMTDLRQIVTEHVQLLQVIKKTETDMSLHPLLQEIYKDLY
The data set can be described thus: PPARγ reporter assay (INDIGO Biosciences). The format is cell-based. The settings on record: 20 h, read-out: PPARγ % rosiglitazone (500 nM), 12.5 μM test compound; luciferase reporter cells, 20 hours; activity compared to rosiglitazone. How it is done:
(§5) The functional effect of THIAA derivatives on PPARα and PPARγ activity was evaluated using a PPAR reporter assay (INDIGO Biosciences, Pa.). This assay utilizes non-human mammalian cells engineered to provide constitutive high level expression of PPARα, or PPARγ and containing a luciferase report gene specific to the appropriate PPAR. Following activation by agonist binding, PPAR induces expression of the luciferase reporter gene. Luciferase activity therefore provides a surrogate for measuring PPAR activity in agonist-treated cells.
(§6) 0.1% DMSO was used as a solvent control for each assay. Plates were incubated for 20 hours in a humidified incubator at 37° C. and 5% CO2. After incubation, the cell medium was discarded and the cells were treated with 100 μL of luciferase detection reagent for 15 minutes. Plates were analyzed using a luminometer (Victor2, Perkin Elmer). Average relative light unit (RLU) and standard deviation were measured.
(A reporter such as luciferase makes a cellular process visible.)

Data set [5] concerns LPS-mediated IL-6 production in THP-1 cells. The experiment in a line: LPS-mediated IL-6 production in THP-1 cells. The format is cell-based. Conditions: Homo sapiens; 12.5 μM test compound; THP-1 cells, LPS 1 μg/ml; NI = no inhibition. The protocol: as §1, §4, §3
Data set [6] relates to LPS-mediated MIP-1α production in THP-1 cells. The experiment in a line: LPS-mediated MIP-1α production in THP-1 cells. The format is cell-based. The settings on record: Homo sapiens; 12.5 μM test compound; THP-1 cells, LPS 1 μg/ml; NI = no inhibition. The protocol: as §1, §4, §3
Data set [7] concerns LPS-mediated prostaglandin E2 (PGE2) production in RAW264.7 cells. The data set can be described thus: LPS-mediated PGE2 production in RAW264.7 murine macrophage model. It counts as cell-based. The settings on record: Mus musculus, RAW264.7, 6 h, 12.5 μM test compound, LPS 1 μg/ml, NI = no inhibition. How it is done: as §1, §2, §3
Another data set deals with T2, PPARα (Homo sapiens, UniProt Q07869).
T2 sequence (Q07869 1-468): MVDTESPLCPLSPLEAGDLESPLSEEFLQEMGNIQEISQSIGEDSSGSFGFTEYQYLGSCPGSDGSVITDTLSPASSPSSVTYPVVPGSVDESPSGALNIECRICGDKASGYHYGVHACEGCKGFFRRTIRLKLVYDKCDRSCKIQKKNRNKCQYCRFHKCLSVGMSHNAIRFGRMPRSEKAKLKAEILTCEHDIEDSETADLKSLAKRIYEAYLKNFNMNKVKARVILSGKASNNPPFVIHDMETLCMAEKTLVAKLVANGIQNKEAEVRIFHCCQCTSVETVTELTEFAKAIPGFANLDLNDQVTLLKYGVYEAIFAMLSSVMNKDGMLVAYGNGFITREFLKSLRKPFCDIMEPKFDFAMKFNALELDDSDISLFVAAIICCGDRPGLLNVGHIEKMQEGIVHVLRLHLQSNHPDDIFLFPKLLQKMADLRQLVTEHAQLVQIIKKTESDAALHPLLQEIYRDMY
The experiment in a line: PPARα reporter assay (INDIGO Biosciences). The format is cell-based. Conditions: 12.5 μM test compound, luciferase reporter cells, 20 hours, activity compared to GW590735; for Emax at 12.5 µM: read-out: PPARα % GW590735 (20.6 nM). How it is done: as §5, §6

On to `CO/N=C(/CC(C)C)C1=C(O)[C@](O)(/C(CCC(C)C)=N/OC)[C@@H](CCC(C)C)C1=O` [KDT0001/2, (4R,5R)-3,4-dihydroxy-2-(N-methoxy-3-methylbutanimidoyl)-4-(N-methoxy-4-methylpentanimidoyl)-5-(3-methylbutyl)cyclopent-2-en-1-one], for which the inhibition at 12.5 µM in data set [1] was less than 0%; in [2], 74%; in data set [3], 45%; in data set [4], 39%; in data set [5] it was 60%; in data set [6] it was less than 20%. The same molecule registered an inhibition at 12.5 µM in data set [7] of 55%. In addition, the Emax at 12.5 µM on PPARγ and at PPARα was less than 5% in each case.
`CC(C)CCC(=O)[C@@]1(O)C(O)=C(C(=O)C(C)C)C(=O)[C@@H]1CCC(C)C` [KDT100, (4S,5R)-3,4-dihydroxy-5-(3-methylbutyl)-4-(4-methylpentanoyl)-2-(2-methylpropanoyl)cyclopent-2-en-1-one] came in with a melting point of 49 to 50 °C. Moreover, in data set [1], the inhibition at 12.5 µM is less than 0%. In addition, in data set [2], testing at 12.5 µM gave an inhibition of 61%. Moreover, testing at 12.5 µM in [3] gave an inhibition of 22%. Also, the inhibition at 12.5 µM in data set [4] was less than 20%. The molecule also displayed an inhibition at 12.5 µM in data set [5] of less than 20%. In addition, the inhibition at 12.5 µM in data set [6] was less than 0%. In [7], this molecule came in with an inhibition at 12.5 µM of less than 0%. At PPARα, the “PPARα % GW590735 (20.6 nM)” value was “no effect” and the Emax at 12.5 µM was less than 5%.

One may read the inhibition as the drop in the measured response relative to a control, in per cent. A low value points to a response near the control. The term melting point denotes the temperature, or range, at which the solid turns liquid.

These data come from patent publication US10343977B2, “Tetrahydro-isohumulone derivatives, methods of making and using” (KINDEX PHARMACEUTICALS, INC., priority 2012, dated 2019).
